# Assays:
# [1] = test system: TRPV4 gene; experiment: Promoting effect on TRPV4 gene expression (quantitative real-time PCR, standardized to GAPDH); format: cell-based, human; details: SVHK cells, 1 μM, 48 hours, purified water control = 1.00
# Protocol: Human epidermal cells (SVHK cells) which were established from introduction of SV40 gene into human epidermal cells, were seeded on a plastic petri dish at a seeding density of 10,000 cells/cm^2 and cultured for 24 hours in Dulbecco's Modified Eagle's Medium (DMEM, manufactured by Sigma-Aldrich Co. LLC.) containing 10% fetal bovine serum. Next, to the medium of SVHK cells, an inositol derivative (composition thereof will be described below) dissolved in purified water was added to the final concentration of 1 μM, and culturing was further performed for 48 hours. As for a control, in place of 1 μM inositol derivative, the same amount of purified water was added to SVHK cells, and the cells were cultured in the same manner as above. […] The inositol derivative used was analyzed by using liquid chromatography-mass spectrometry (LC-MS), and the results are as follows. […] Next, quantitative real-time PCR was performed using this cDNA as a template, and the expression levels of TRPV4 gene in SVHK cells of each group were quantified. In addition, the expression level of glyceraldehyde-3-phosphate dehydrogenase (GAPDH) which is a housekeeping gene in which variation is not observed in the expression by adding a compound, as an internal standard gene, was quantified, and based on the expression levels of GAPDH gene in SVHK cells of each group, the expression levels of TRPV4 gene were standardized. […]
# [2] = test system: claudin-1 (CLDN1) gene; experiment: Promoting effect on TJ-related gene expression: claudin-1 (CLDN1) gene (quantitative real-time PCR, standardized to GAPDH); format: cell-based, human; details: SVHK cells, 1 μM, 48 hours, purified water control = 1.00
# Protocol: (§1) Human epidermal cells (SVHK cells) which were established from introduction of SV40 gene into human epidermal cells, were seeded on a plastic petri dish at a seeding density of 10,000 cells/cm^2 and cultured for 24 hours in Dulbecco's Modified Eagle's Medium (DMEM, manufactured by Sigma-Aldrich Co. LLC.) containing 10% fetal bovine serum. Next, to the medium of SVHK cells, 1 μM inositol derivative (composition thereof will be described below) dissolved in purified water was added to the final concentration of 1 μM, and culturing was further performed for 48 hours. […] The inositol derivative used was analyzed by using liquid chromatography-mass spectrometry (LC-MS), and the results are as follows. […] Next, quantitative real-time PCR was performed using this cDNA as a template, and the expression levels of claudin-1 (CLDN1) gene and occludin (OCL) gene in SVHK cells of each group were quantified. In addition, the expression level of glyceraldehyde-3-phosphate dehydrogenase (GAPDH) which is a housekeeping gene in which variation is not observed in the expression by adding a compound, as an internal standard gene, was quantified, and based on the expression levels of GAPDH gene in SVHK cells of each group, the expression levels of CLDN1 gene and OCL gene were standardized. […]
# [3] = test system: Skin Model (type EP1-200); experiment: Test for evaluating TJ-forming ability: transepidermal water loss (TEWL) of Skin Model; format: cell-based; details: 1 w/v % on surface of Skin Model, 24 hours
# Protocol: Skin Model (type “EP1-200” manufactured by KURABO INDUSTRIES LTD.) was cultured before 24 hours at 37° C. under 5% CO2. Next, an inositol derivative (composition thereof will be described below) dissolved in purified water in each concentration of 0.1, 0.5, and 1 w/v % was added to the surface of Skin Model, and culturing was further performed for 24 hours. Next, the inositol derivative was removed, Skin Model was washed three times with a phosphate buffer solution, and transepidermal water loss (TEWL) thereof was measured. For the measurement of TEWL, a cyclone-type moisture-transpiration meter (manufactured by […]) was used. The inositol derivative used was analyzed by using liquid chromatography-mass spectrometry (LC-MS), and the results are as follows. […] As for a control, prepared were a group added with nothing in place of the inositol derivative and a group added with the same amount of purified water in place of the inositol derivative, and TEWL was measured in the same manner as above. In addition, for comparison, prepared was a group in which myo-inositol dissolved in purified water in a concentration of 1 w/v % was added in place of the inositol derivative, and TEWL was measured in the same manner as above.
# [4] = test system: occludin; experiment: Test for evaluating TJ-forming ability: occludin immunostaining fluorescence intensity in Skin Model slices; format: cell-based; details: 1 w/v %, relative to non-applied group
# [5] = test system: occludin (OCL) gene; experiment: Promoting effect on TJ-related gene expression: occludin (OCL) gene (quantitative real-time PCR, standardized to GAPDH); format: cell-based, human; details: SVHK cells, 1 μM, 48 hours, purified water control = 1.00
# Protocol: as §1
smiles,measurement,setting,value
"O[C@H]1[C@H](O)[C@@H](O)[C@H](O)[C@@H](O)[C@H]1O [Myo-inositol, myo-inositol]",Expression levels of TRPV4 gene (relative value),[1],0.84 relative value
same,Expression levels of gene (relative value) CLDN1,[2],1.57 relative value
same,TEWL,[3],30.7 ± 2.9 g/(h · m^2)
same,Fluorescence intensity (relative value),[4],3.32 relative value
same,Expression levels of gene (relative value) OCL,[5],0.94 relative value
